Measurements reported in US10294202B2, “Pyrrolidinones as herbicides” (FMC Corporation, priority 2013, dated 2019).

What was measured:
sedge, umbrella = experiment: Test B flooded paddy test; type: in vivo, Cyperus difformis; settings: 500 g ai/ha, Flood; scale of 0 to 100 where 0 is no effect and 100 is complete control
Outline: (§1)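 Treatment was made at the 2-leaf stage by dosing the standing floodwater, kept 3 cm above soil level for the whole test. Greenhouse exposure lasted 13 to 15 days. Response is a visual percent rating relative to controls, where a dash indicates no test result.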

ryegrass, Italian = experiment: Test A pre-/postemergence herbicide test; type: in vivo, Lolium multiflorum
Outline: (§2)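 Scoring was visual, relative to untreated controls, on a 0–100 scale after about 10 greenhouse days. Preemergence treatment used a directed soil spray over seeded loam/sand; postemergence treatment targeted one- to two-leaf plants of 2–10 cm.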

rice = experiment: Test B flooded paddy test; type: in vivo, Oryza sativa; settings: 500 g ai/ha, Flood; scale of 0 to 100 where 0 is no effect and 100 is complete control
Outline: as §1

kochia = experiment: Test A pre-/postemergence herbicide test; type: in vivo, Kochia scoparia
Outline: as §2

galium = experiment: Test A postemergence herbicide test; type: in vivo, Galium aparine
Outline: (§3)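 Visual injury rating, 0 (no effect) to 100 (complete control), versus untreated controls ~10 days after treatment. Postemergence spray applied at one- to two-leaf stage, plants 2–10 cm tall, potted in loam soil/sand. Greenhouse-held.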

corn = experiment: Test A pre-/postemergence herbicide test; type: in vivo, Zea mays; settings: Postemergence
Outline: as §2

ducksalad = experiment: Test B flooded paddy test; type: in vivo, Heteranthera limosa; settings: 500 g ai/ha, Flood; scale of 0 to 100 where 0 is no effect and 100 is complete control
Outline: as §1

wheat = experiment: Test A pre-/postemergence herbicide test; type: in vivo, Triticum aestivum; settings: Postemergence
Outline: as §2

pigweed = experiment: Test A pre-/postemergence herbicide test; type: in vivo, Amaranthus retroflexus
Outline: as §2

blackgrass = experiment: Test A postemergence herbicide test; type: in vivo, Alopecurus myosuroides
Outline: as §3

giant foxtail = experiment: Test A pre-/postemergence herbicide test; type: in vivo, Setaria faberii
Outline: as §2

barnyardgrass [1] = experiment: Test A pre-/postemergence herbicide test; type: in vivo, Echinochloa crus-galli
Outline: as §2

barnyardgrass [2] = experiment: Test B flooded paddy test; type: in vivo, Echinochloa crus-galli; settings: 500 g ai/ha, Flood; scale of 0 to 100 where 0 is no effect and 100 is complete control
Outline: as §1

ragweed = experiment: Test A pre-/postemergence herbicide test; type: in vivo, Ambrosia elatior
Outline: as §2

[3] = 125 g ai/ha, visual rating, 0 to 100 scale, 0 no effect, 100 complete control, approximately 10 days, preemergence
[4] = Postemergence, 125 g ai/ha, 0 to 100 scale, 0 is no effect, 100 is complete control
[5] = preemergence, 500 g ai/ha, 0 to 100 scale, 0 is no effect and 100 is complete control
[6] = 125 g ai/ha, 0 to 100 scale, 0 is no effect, 100 is complete control
[7] = preemergence, 500 g ai/ha, 0 to 100 scale
[8] = preemergence, 500 g ai/ha, 0 to 100 scale (0 no effect, 100 complete control)
[9] = Postemergence, 125 g ai/ha, visual rating on 0 to 100 scale (0 no effect, 100 complete control), approx. 10 days
[10] = Postemergence, 500 g ai/ha, 0 to 100 scale (0 no effect, 100 complete control)
[11] = Preemergence, 125 g ai/ha, 0 to 100 scale where 0 is no effect and 100 is complete control
[12] = Preemergence, 500 g ai/ha, visual rating on 0 to 100 scale (0 no effect, 100 complete control)
[13] = 125 g ai/ha, visual rating on 0 to 100 scale (0 no effect, 100 complete control), approx. 10 days
[14] = 500 g ai/ha, 0 to 100 scale (0 no effect, 100 complete control)

O=C1NCC(c2ccc3c(c2)OC(F)(F)O3)C1C(=O)Nc1ccc(F)c(F)c1F (racemic) [Compound 162]
Plant response rating, Sedge, Umbrella (sedge, umbrella): 0 | Plant response rating, Ryegrass, Italian (ryegrass, Italian; [3]): 0 | Plant response rating, Ryegrass, Italian (ryegrass, Italian; [4]): 0 | Ryegrass, Italian plant response rating (0 to 100 scale, 0 is no effect, 100 is complete control) (ryegrass, Italian; Postemergence, 500 g ai/ha): 50 | Plant response rating, Ryegrass, Italian (ryegrass, Italian; [5]): 50 | Plant response rating, Rice (rice): 0 | Plant response rating, Kochia (kochia; [3]): 50 | Plant response rating, Kochia (kochia; [4]): 40 | Kochia plant response rating (0 to 100 scale, 0 is no effect, 100 is complete control) (kochia; Postemergence, 500 g ai/ha): 70 | Plant response rating, Kochia (kochia; [5]): 60 | Plant response rating, Galium (galium; [6]): 30 | Galium plant response rating (0 to 100 scale, 0 is no effect, 100 is complete control) (galium; 500 g ai/ha): 70 | Plant response rating, Corn (corn; [6]): 30 | Corn plant response rating (0 to 100 scale, 0 is no effect, 100 is complete control) (corn; 500 g ai/ha): 60 | Plant response rating, Ducksalad (ducksalad): 100 | Plant response rating, Wheat (wheat; [6]): 0 | Wheat plant response rating (0 to 100 scale, 0 is no effect, 100 is complete control) (wheat; 500 g ai/ha): 50 | Plant response rating, Pigweed (pigweed; [3]): 60 | Plant response rating, Pigweed (pigweed; [4]): 20 | Pigweed plant response rating (0 to 100 scale, 0 is no effect, 100 is complete control) (pigweed; Postemergence, 500 g ai/ha): 70 | Plant response rating, Pigweed (pigweed; [5]): 80 | Plant response rating, Blackgrass (blackgrass; [6]): 50 | Blackgrass plant response rating (0 to 100 scale, 0 is no effect, 100 is complete control) (blackgrass; 500 g ai/ha): 50 | Plant response rating, Foxtail, Giant (giant foxtail; [3]): 80 | Plant response rating, Foxtail, Giant (giant foxtail; [4]): 90 | Foxtail, Giant plant response rating (0 to 100 scale, 0 is no effect, 100 is complete control) (giant foxtail; Postemergence, 500 g ai/ha): 90 | Plant response rating, Foxtail, Giant (giant foxtail; [7]): 90 | Plant response rating, Barnyardgrass (barnyardgrass [1]; [3]): 90 | Plant response rating, Barnyardgrass (barnyardgrass [1]; [4]): 70 | Barnyardgrass plant response rating (0 to 100 scale, 0 is no effect, 100 is complete control) (barnyardgrass [1]; Postemergence, 500 g ai/ha): 90 | Plant response rating, Barnyardgrass (barnyardgrass [1]; [8]): 90 | Plant response rating, Barnyardgrass (barnyardgrass [2]): 75 | Plant response rating, Ragweed (ragweed; [3]): 0 | Plant response rating, Ragweed (ragweed; [4]): 0 | Ragweed plant response rating (0 to 100 scale, 0 is no effect, 100 is complete control) (ragweed; Postemergence, 500 g ai/ha): 40 | Plant response rating, Ragweed (ragweed; [5]): 60

O=C1NCC(c2ccc(SC(F)(F)F)cc2)C1C(=O)Nc1ccc(F)c(F)c1F (stereo not drawn) [Compound 322]
Plant response rating, Sedge, Umbrella (sedge, umbrella): 0 | Plant response rating, Ryegrass, Italian (ryegrass, Italian; [9]): 0 | Plant response rating, Ryegrass, Italian (ryegrass, Italian; [10]): 0 | Plant response rating, Ryegrass, Italian (ryegrass, Italian; [11]): 0 | Ryegrass, Italian plant response rating (ryegrass, Italian; [12]): 0 | Plant response rating, Rice (rice): 0 | Plant response rating, Kochia (kochia; [9]): 0 | Plant response rating, Kochia (kochia; [10]): 0 | Plant response rating, Kochia (kochia; [11]): 0 | Kochia plant response rating (kochia; [12]): 0 | Plant response rating, Galium (galium; [13]): 0 | Plant response rating, Galium (galium; [14]): 0 | Plant response rating, Corn (corn; [13]): 0 | Plant response rating, Corn (corn; [14]): 20 | Plant response rating, Ducksalad (ducksalad): 100 | Plant response rating, Wheat (wheat; [13]): 0 | Plant response rating, Wheat (wheat; [14]): 0 | Plant response rating, Pigweed (pigweed; [9]): 0 | Plant response rating, Pigweed (pigweed; [10]): 0 | Plant response rating, Pigweed (pigweed; [11]): 0 | Pigweed plant response rating (pigweed; [12]): 0 | Plant response rating, Blackgrass (blackgrass; [13]): 0 | Plant response rating, Blackgrass (blackgrass; [14]): 0 | Plant response rating, Foxtail, Giant (giant foxtail; [9]): 0 | Plant response rating, Foxtail, Giant (giant foxtail; [10]): 60 | Plant response rating, Foxtail, Giant (giant foxtail; [11]): 0 | Foxtail, Giant plant response rating (giant foxtail; [12]): 70 | Plant response rating, Barnyardgrass (barnyardgrass [1]; [9]): 0 | Plant response rating, Barnyardgrass (barnyardgrass [1]; [10]): 60 | Plant response rating, Barnyardgrass (barnyardgrass [1]; [11]): 0 | Barnyardgrass plant response rating (barnyardgrass [1]; [12]): 40 | Plant response rating, Barnyardgrass (barnyardgrass [2]): 0 | Plant response rating, Ragweed (ragweed; [9]): 0 | Plant response rating, Ragweed (ragweed; [10]): 0 | Plant response rating, Ragweed (ragweed; [11]): 0 | Ragweed plant response rating (ragweed; [12]): 0

CSc1cccc(C2CNC(=O)C2C(=O)Nc2ccc(F)c(F)c2F)c1 (stereo not drawn) [Compound 290]
Plant response rating, Sedge, Umbrella (sedge, umbrella): 0 | Plant response rating, Ryegrass, Italian (ryegrass, Italian; [9]): 0 | Plant response rating, Ryegrass, Italian (ryegrass, Italian; [10]): 0 | Plant response rating, Ryegrass, Italian (ryegrass, Italian; [11]): 0 | Ryegrass, Italian plant response rating (ryegrass, Italian; [12]): 0 | Plant response rating, Rice (rice): 0 | Plant response rating, Kochia (kochia; [9]): 0 | Plant response rating, Kochia (kochia; [10]): 0 | Plant response rating, Kochia (kochia; [11]): 0 | Plant response rating, Kochia (kochia; [5]): 0 | Plant response rating, Galium (galium; [13]): 0 | Plant response rating, Galium (galium; [14]): 0 | Plant response rating, Corn (corn; [13]): 0 | Plant response rating, Corn (corn; [14]): 0 | Plant response rating, Ducksalad (ducksalad): 75 | Plant response rating, Wheat (wheat; [13]): 0 | Plant response rating, Wheat (wheat; [14]): 0 | Plant response rating, Pigweed (pigweed; [9]): 0 | Plant response rating, Pigweed (pigweed; [10]): 10 | Plant response rating, Pigweed (pigweed; [11]): 0 | Plant response rating, Pigweed (pigweed; [5]): 0 | Plant response rating, Blackgrass (blackgrass; [13]): 0 | Plant response rating, Blackgrass (blackgrass; [14]): 0 | Plant response rating, Foxtail, Giant (giant foxtail; [9]): 30 | Plant response rating, Foxtail, Giant (giant foxtail; [10]): 60 | Plant response rating, Foxtail, Giant (giant foxtail; [11]): 60 | Plant response rating, Foxtail, Giant (giant foxtail; [5]): 80 | Plant response rating, Barnyardgrass (barnyardgrass [1]; [9]): 50 | Plant response rating, Barnyardgrass (barnyardgrass [1]; [10]): 80 | Plant response rating, Barnyardgrass (barnyardgrass [1]; [11]): 60 | Plant response rating, Barnyardgrass (barnyardgrass [1]; [5]): 80 | Plant response rating, Barnyardgrass (barnyardgrass [2]): 40 | Plant response rating, Ragweed (ragweed; [9]): 0 | Plant response rating, Ragweed (ragweed; [10]): 0 | Plant response rating, Ragweed (ragweed; [11]): 0 | Plant response rating, Ragweed (ragweed; [5]): 0

CS(=O)(=O)c1ccccc1NC(=O)C1C(=O)NCC1c1cccc(C(F)(F)F)c1 (racemic) [Compound 160]
Plant response rating, Sedge, Umbrella (sedge, umbrella): 0 | Plant response rating, Ryegrass, Italian (ryegrass, Italian; [3]): 60 | Plant response rating, Ryegrass, Italian (ryegrass, Italian; [4]): 0 | Ryegrass, Italian plant response rating (0 to 100 scale, 0 is no effect, 100 is complete control) (ryegrass, Italian; Postemergence, 500 g ai/ha): 10 | Plant response rating, Ryegrass, Italian (ryegrass, Italian; [5]): 70 | Plant response rating, Rice (rice): 10 | Plant response rating, Kochia (kochia; [3]): 80 | Plant response rating, Kochia (kochia; [4]): 70 | Kochia plant response rating (0 to 100 scale, 0 is no effect, 100 is complete control) (kochia; Postemergence, 500 g ai/ha): 80 | Plant response rating, Kochia (kochia; [5]): 90 | Plant response rating, Galium (galium; [6]): 60 | Galium plant response rating (0 to 100 scale, 0 is no effect, 100 is complete control) (galium; 500 g ai/ha): 70 | Plant response rating, Corn (corn; [6]): 40 | Corn plant response rating (0 to 100 scale, 0 is no effect, 100 is complete control) (corn; 500 g ai/ha): 70 | Plant response rating, Ducksalad (ducksalad): 100 | Plant response rating, Wheat (wheat; [6]): 0 | Wheat plant response rating (0 to 100 scale, 0 is no effect, 100 is complete control) (wheat; 500 g ai/ha): 50 | Plant response rating, Pigweed (pigweed; [3]): 70 | Plant response rating, Pigweed (pigweed; [4]): 60 | Pigweed plant response rating (0 to 100 scale, 0 is no effect, 100 is complete control) (pigweed; Postemergence, 500 g ai/ha): 80 | Plant response rating, Pigweed (pigweed; [5]): 90 | Plant response rating, Blackgrass (blackgrass; [6]): 60 | Blackgrass plant response rating (0 to 100 scale, 0 is no effect, 100 is complete control) (blackgrass; 500 g ai/ha): 70 | Plant response rating, Foxtail, Giant (giant foxtail; [3]): 80 | Plant response rating, Foxtail, Giant (giant foxtail; [4]): 80 | Foxtail, Giant plant response rating (0 to 100 scale, 0 is no effect, 100 is complete control) (giant foxtail; Postemergence, 500 g ai/ha): 90 | Plant response rating, Foxtail, Giant (giant foxtail; [7]): 90 | Plant response rating, Barnyardgrass (barnyardgrass [1]; [3]): 80 | Plant response rating, Barnyardgrass (barnyardgrass [1]; [4]): 70 | Barnyardgrass plant response rating (0 to 100 scale, 0 is no effect, 100 is complete control) (barnyardgrass [1]; Postemergence, 500 g ai/ha): 80 | Plant response rating, Barnyardgrass (barnyardgrass [1]; [8]): 90 | Plant response rating, Barnyardgrass (barnyardgrass [2]): 60 | Plant response rating, Ragweed (ragweed; [3]): 70 | Plant response rating, Ragweed (ragweed; [4]): 50 | Ragweed plant response rating (0 to 100 scale, 0 is no effect, 100 is complete control) (ragweed; Postemergence, 500 g ai/ha): 60 | Plant response rating, Ragweed (ragweed; [5]): 80
